Assay results from ChEMBL document CHEMBL3745645, “Synthesis, in vitro antitumor activity, dihydrofolate reductase inhibition, DNA intercalation and structure-activity relationship studies of 1,3,5-triazine analogues” (Bioorg Med Chem Lett, 2016).
The source made the active and inactive calls. The calls are words filed in the database; no cut-off is given here.

How the values were obtained:
[1] = system: CCRF-CEM; test: Cytotoxicity against human CCRF-CEM cells at 10 uM after 48 hrs by SRB assay; assay type: functional
[2] = Cytotoxicity against human UO31 cells at 10 uM after 48 hrs by SRB assay; assay type: functional; settings: UO-31, 48 h, read-out: GI
[3] = Cytotoxicity against human SKOV3 cells at 10 uM after 48 hrs by SRB assay; assay type: functional; settings: SK-OV-3, 48 h, read-out: GI
[4] = system: Malme-3M; test: Cytotoxicity against human MALME-3M cells at 10 uM after 48 hrs by SRB assay; assay type: functional; settings: read-out: GI
[5] = system: HT-29; test: Cytotoxicity against human HT-29 cells at 10 uM after 48 hrs by SRB assay; assay type: functional; settings: HT-29, 48 h, read-out: GI
[6] = target: T1, Dihydrofolate reductase (Homo sapiens, UniProt P00374); test: Inhibition of human recombinant DHFR expressed in Escherichia coli by spectrophotometric analysis
T1 sequence (P00374 whole entry): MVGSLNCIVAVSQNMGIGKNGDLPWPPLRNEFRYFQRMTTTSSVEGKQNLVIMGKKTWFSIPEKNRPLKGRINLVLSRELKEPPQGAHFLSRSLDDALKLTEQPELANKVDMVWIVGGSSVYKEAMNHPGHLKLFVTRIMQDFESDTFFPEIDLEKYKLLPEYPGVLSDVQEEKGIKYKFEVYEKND

[7] = Cytotoxicity against human Caki1 cells at 10 uM after 48 hrs by SRB assay; assay type: functional; settings: CAKI-1, 48 h, read-out: GI
[8] = Cytotoxicity against human RPMI8226 cells after 48 hrs by SRB assay; assay type: functional; settings: RPMI-8226, 48 h, read-out: LC50 (the source's name)
[9] = system: NCI-H322M; test: Cytotoxicity against human NCI-H322M cells at 10 uM after 48 hrs by SRB assay; assay type: functional; settings: read-out: GI
[10] = Cytotoxicity against human HL-60(TB) cells after 48 hrs by SRB assay; assay type: functional; settings: HL-60, 48 h, read-out: LC50 (the source's name)
[11] = Cytotoxicity against human OVCAR3 cells at 10 uM after 48 hrs by SRB assay; assay type: functional; settings: OVCAR-3, 48 h, read-out: GI
[12] = Cytotoxicity against human COLO205 cells after 48 hrs by SRB assay; assay type: functional; settings: COLO 205, 48 h, pooled result: one value given for 7 cell lines, strains, targets or settings
[13] = system: MDA-MB-468; test: Cytotoxicity against human MDA-MB-468 cells at 10 uM after 48 hrs by SRB assay; assay type: functional; settings: MDA-MB-468, 48 h, read-out: GI
[14] = Cytotoxicity against human SF539 cells at 10 uM after 48 hrs by SRB assay; assay type: functional; settings: SF-539, 48 h, read-out: GI
[15] = Cytotoxicity against human DU145 cells at 10 uM after 48 hrs by SRB assay; assay type: functional; settings: DU-145, 48 h, read-out: GI
[16] = system: SN12C; test: Cytotoxicity against human SN12C cells at 10 uM after 48 hrs by SRB assay; assay type: functional; settings: read-out: GI
[17] = Cytotoxicity against human HCT116 cells at 10 uM after 48 hrs by SRB assay; assay type: functional; settings: HCT-116, 48 h, read-out: GI
[18] = system: MDA-MB-231; test: Cytotoxicity against human MDA-MB-231 cells at 10 uM after 48 hrs by SRB assay; assay type: functional; settings: MDA-MB-231, 48 h, read-out: GI
[19] = Cytotoxicity against human SNB19 cells at 10 uM after 48 hrs by SRB assay; assay type: functional; settings: SNB-19, 48 h, read-out: GI
[20] = system: SK-MEL-5; test: Cytotoxicity against human SK-MEL-5 cells at 10 uM after 48 hrs by SRB assay; assay type: functional; settings: SK-MEL-5, 48 h, read-out: GI
[21] = system: 786-0; test: Cytotoxicity against human 786-0 cells at 10 uM after 48 hrs by SRB assay; assay type: functional; settings: 786-0, 48 h, read-out: GI
[22] = Cytotoxicity against human SNB75 cells at 10 uM after 48 hrs by SRB assay; assay type: functional; settings: SNB-75, 48 h, read-out: GI
[23] = system: NCI-H522; test: Cytotoxicity against human NCI-H522 cells at 10 uM after 48 hrs by SRB assay; assay type: functional; settings: NCI-H522, 48 h, read-out: GI
[24] = Cytotoxicity against human HOP62 cells at 10 uM after 48 hrs by SRB assay; assay type: functional; settings: HOP-62, 48 h, read-out: GI
[25] = Cytotoxicity against human RXF393 cells at 10 uM after 48 hrs by SRB assay; assay type: functional; settings: RXF 393, 48 h, read-out: GI
[26] = system: NCI-H460; test: Cytotoxicity against human NCI-H460 cells at 10 uM after 48 hrs by SRB assay; assay type: functional; settings: NCI-H460, 48 h, read-out: GI
[27] = Cytotoxicity against human IGROV1 cells at 10 uM after 48 hrs by SRB assay; assay type: functional; settings: IGROV-1, 48 h, read-out: GI
[28] = system: SR; test: Cytotoxicity against human SR cells after 48 hrs by SRB assay; assay type: functional
[29] = system: NCI-H226; test: Cytotoxicity against human NCI-H226 cells at 10 uM after 48 hrs by SRB assay; assay type: functional; settings: NCI-H226, 48 h, read-out: GI
[30] = system: U-251; test: Cytotoxicity against human U251 cells at 10 uM after 48 hrs by SRB assay; assay type: functional; settings: U-251, 48 h, read-out: GI
[31] = Cytotoxicity against human OVCAR8 cells at 10 uM after 48 hrs by SRB assay; assay type: functional; settings: OVCAR-8, 48 h, read-out: GI
[32] = system: MCF7; test: Cytotoxicity against human MCF7 cells at 10 uM after 48 hrs by SRB assay; assay type: functional; settings: MCF7, 48 h, read-out: GI
[33] = system: SK-MEL-28; test: Cytotoxicity against human SK-MEL-28 cells at 10 uM after 48 hrs by SRB assay; assay type: functional; settings: SK-MEL-28, 48 h, read-out: GI
[34] = system: T47D; test: Cytotoxicity against human T47D cells at 10 uM after 48 hrs by SRB assay; assay type: functional; settings: read-out: GI
[35] = system: A498; test: Cytotoxicity against human A498 cells at 10 uM after 48 hrs by SRB assay; assay type: functional; settings: A498, 48 h, read-out: GI
[36] = system: Calf thymus DNA; test: Binding affinity to calf thymus DNA by fluorescence spectrophotometric analysis; assay type: nucleic-acid assay; settings: Bos taurus
[37] = system: KM12; test: Cytotoxicity against human KM12 cells at 10 uM after 48 hrs by SRB assay; assay type: functional; settings: KM12, 48 h, read-out: GI
[38] = Cytotoxicity against human IGROV1 cells after 48 hrs by SRB assay; assay type: functional; settings: IGROV-1, 48 h, pooled result: one value given for 7 cell lines, strains, targets or settings
[39] = Cytotoxicity against human MOLT4 cells after 48 hrs by SRB assay; assay type: functional; settings: MOLT-4, 48 h, read-out: LC50 (the source's name)
[40] = system: SR; test: Cytotoxicity against human SR cells at 10 uM after 48 hrs by SRB assay; assay type: functional
[41] = Cytotoxicity against human SF268 cells at 10 uM after 48 hrs by SRB assay; assay type: functional; settings: SF-268, 48 h, read-out: GI
[42] = Cytotoxicity against human MOLT4 cells at 10 uM after 48 hrs by SRB assay; assay type: functional; settings: MOLT-4, 48 h, read-out: GI

Q: With `COc1ccc(-c2nc(Nc3ccc(F)cc3)nc(Nc3ccc4c(c3)nc(C)n4Cc3ccccc3)n2)cc1` as the molecule, how does the “growth inhibition (GI)” value [1] read?
A: Active

Q: And the inhibition of growth at 10 µM [2]?
A: 70.7%

Q: What about the inhibition of growth at 10 µM [3] of the same molecule?
A: 23.2%

Q: What about the inhibition of growth at 10 µM [4] of the same molecule?
A: 47.2%

Q: What about the inhibition of growth at 10 µM [5] of the same molecule?
A: 91.1%

Q: And the IC50 [6]?
A: 0.32 µM

Q: What about the inhibition of growth at 10 µM [7] of the same molecule?
A: 16.8%

Q: And the CC50 [8]?
A: > 100 µM

Q: And the inhibition of growth at 10 µM [9]?
A: 17.6%

Q: What about the CC50 [10] of the same molecule?
A: > 100 µM

Q: What about the inhibition of growth at 10 µM [11] of the same molecule?
A: 49.5%

Q: What about the GI50 [12] of the same molecule?
A: 3.52 µM

Q: And the LC50 [12]?
A: 18.2 µM

Q: And the TGI [12]?
A: 14.4 µM

Q: And the inhibition of growth at 10 µM [13]?
A: 71.6%

Q: What about the inhibition of growth at 10 µM [14] of the same molecule?
A: 32.2%

Q: What about the inhibition of growth at 10 µM [15] of the same molecule?
A: 45.3%

Q: What about the inhibition of growth at 10 µM [16] of the same molecule?
A: 51.6%

Q: What about the inhibition of growth at 10 µM [17] of the same molecule?
A: 76.6%

Q: And the inhibition of growth at 10 µM [18]?
A: 68.8%

Q: And the inhibition of growth at 10 µM [19]?
A: 39.3%

Q: What about the inhibition of growth at 10 µM [20] of the same molecule?
A: 52.9%

Q: And the inhibition of growth at 10 µM [21]?
A: 53.3%

Q: And the inhibition of growth at 10 µM [22]?
A: 32%

Q: And the inhibition of growth at 10 µM [23]?
A: 44.6%

Q: And the inhibition of growth at 10 µM [24]?
A: 46.7%

Q: What about the inhibition of growth at 10 µM [25] of the same molecule?
A: 64.3%

Q: What about the inhibition of growth at 10 µM [26] of the same molecule?
A: 69.7%

Q: And the inhibition of growth at 10 µM [27]?
A: 63.6%

Q: What about the LC50 (concentration killing 50% of cells) [28] of the same molecule?
A: > 100 µM

Q: What about the inhibition of growth at 10 µM [29] of the same molecule?
A: 33.4%

Q: And the inhibition of growth at 10 µM [30]?
A: 60.8%

Q: What about the inhibition of growth at 10 µM [31] of the same molecule?
A: 82.1%

Q: And the inhibition of growth at 10 µM [32]?
A: 77.4%

Q: And the inhibition of growth at 10 µM [33]?
A: 43.5%

Q: What about the inhibition of growth at 10 µM [34] of the same molecule?
A: 88.5%

Q: And the inhibition of growth at 10 µM [35]?
A: 27.3%

Q: What about the Ka [36] of the same molecule?
A: 1.5 ×10⁴ /M

Q: And the inhibition of growth at 10 µM [37]?
A: 74%

Q: What about the GI50 [38] of the same molecule?
A: 4.79 µM

Q: What about the LC50 (concentration killing 50% of cells) [38] of the same molecule?
A: > 100 µM

Q: What about the TGI [38] of the same molecule?
A: 40.5 µM

Q: What about the CC50 [39] of the same molecule?
A: > 100 µM

Q: What about the “growth inhibition (GI)” value [40] of the same molecule?
A: Active

Q: And the inhibition of growth at 10 µM [41]?
A: 53.1%

Q: Which results are given for `Cc1nc2cc(Nc3nc(Nc4ccc(F)cc4)nc(-c4ccc(Cl)cc4)n3)ccc2n1Cc1ccccc1`?
A: inhibition of growth at 10 µM ([1]; read-out: GI): 96.1%; inhibition of growth at 10 µM [2]: 55.5%; inhibition of growth at 10 µM [3]: 7.08%; inhibition of growth at 10 µM [4]: 27.5%; inhibition of growth at 10 µM [5]: 44.2%; IC50 [6]: 42.4 µM; inhibition of growth at 10 µM [7]: 9.6%; CC50 [8]: > 100 µM; inhibition of growth at 10 µM [9]: 5.98%; CC50 [10]: > 100 µM; inhibition of growth at 10 µM [11]: 42.7%; GI50 [12]: 4.97 µM; LC50 [12]: > 100 µM; TGI [12]: 59.8 µM; inhibition of growth at 10 µM [13]: 25.7%; inhibition of growth at 10 µM [14]: 7.42%; inhibition of growth at 10 µM [15]: 18.6%; inhibition of growth at 10 µM [42]: 99.2%; inhibition of growth at 10 µM [16]: 22.9%; inhibition of growth at 10 µM [17]: 49.7%; inhibition of growth at 10 µM [18]: 34%; inhibition of growth at 10 µM [19]: 16.6%; inhibition of growth at 10 µM [20]: 16.6%; inhibition of growth at 10 µM [21]: 8.96%; inhibition of growth at 10 µM [22]: 34.8%; inhibition of growth at 10 µM [23]: 17.2%; inhibition of growth at 10 µM [24]: 19.4%; inhibition of growth at 10 µM [25]: 31.5%; inhibition of growth at 10 µM [26]: 28.9%; inhibition of growth at 10 µM [27]: 51.3%; LC50 (concentration killing 50% of cells) [28]: > 100 µM; inhibition of growth at 10 µM [29]: 13.5%; inhibition of growth at 10 µM [30]: 30.3%; inhibition of growth at 10 µM [31]: 37.2%; inhibition of growth at 10 µM [32]: 57.6%; inhibition of growth at 10 µM [33]: 7.37%; inhibition of growth at 10 µM [34]: 69.3%; inhibition of growth at 10 µM [35]: 29.7%; Ka [36]: 1.97 ×10⁴ /M; inhibition of growth at 10 µM [37]: 62.8%; GI50 [38]: 6.1 µM; LC50 (concentration killing 50% of cells) [38]: 65.4 µM; TGI [38]: 24.4 µM; CC50 [39]: > 100 µM; growth inhibition (GI) [40]: Active; inhibition of growth at 10 µM [41]: 45.1%
